Source: patent US6737383B1, “Herbicidal oxadiazolidines” (priority 1999, dated 2004)

How the values were obtained:
corn = test: Test B pre/postemergence corn; type: in vivo, Zea mays
Method in brief: (§1)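 Test chemicals in a non-phytotoxic solvent mixture with surfactant were sprayed preemergence onto planted seeds and postemergence onto plants 2 to 18 cm tall (1- to 4-leaf stage). After twelve to sixteen days in a greenhouse, injury was visually rated against untreated controls from 0 (no effect) to 10 (complete control).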

cocklebur = test: Test B pre/postemergence cocklebur; type: in vivo, Xanthium strumarium
Method in brief: as §1

duck salad = test: Test B flood test duck salad; type: in vivo, Heteranthera limosa
Method in brief: (§2)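 Flood test on plants grown to the 2-leaf stage; treated plants kept in greenhouse twelve to sixteen days, then visually rated against controls on a 0 (no effect) to 10 (complete control) scale.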

soybean = test: Test B pre/postemergence soybean; type: in vivo, Glycine max
Method in brief: as §1

bamyardgrass = test: Test B flood test barnyardgrass; type: in vivo, Echinochloa crus-galli
Method in brief: as §2

sugar beet = test: Test B pre/postemergence sugar beet; type: in vivo, Beta vulgaris
Method in brief: as §1

rice = test: Test B flood test rice; type: in vivo, Oryza sativa
Method in brief: as §2

smallflower flatsedge = test: Test B flood test smallflower flatsedge; type: in vivo, Cyperus difformis
Method in brief: as §2

crabgrass = test: Test B pre/postemergence crabgrass; type: in vivo, Digitaria sanguinalis
Method in brief: as §1

bedstraw = test: Test B pre/postemergence bedstraw; type: in vivo, Galium aparine
Method in brief: as §1

surinam grass = test: Test B pre/postemergence surinam grass; type: in vivo, Brachiaria decumbens
Method in brief: as §1

wild oat = test: Test B pre/postemergence wild oat; type: in vivo, Avena fatua
Method in brief: as §1

velvetleaf = test: Test B pre/postemergence velvetleaf; type: in vivo, Abutilon theophrasti
Method in brief: as §1

blackgrass = test: Test B pre/postemergence blackgrass; type: in vivo, Alopecurus myosuroides
Method in brief: as §1

wheat = test: Test B pre/postemergence wheat; type: in vivo, Triticum aestivum
Method in brief: as §1

purple nutsedge = test: Test B pre/postemergence purple nutsedge; type: in vivo, Cyperus rotundus
Method in brief: as §1

[1] = Postemergence, Rate 125 g/ha, scale of 0 to 10 where 0 is no effect and 10 is complete control
[2] = Preemergence, Rate 62 g/ha, scale of 0 to 10 where 0 is no effect and 10 is complete control
[3] = Preemergence, Rate 125 g/ha, 0 is no effect, 10 is complete control
[4] = Preemergence, Rate 250 g/ha, scale 0 to 10, 0 is no effect, 10 is complete control
[5] = Preemergence, Rate 500 g/ha, scale 0 to 10 (0 no effect, 10 complete control)
[6] = Rate 62 g/ha, Postemergence, scale of 0 to 10 where 0 is no effect and 10 is complete control
[7] = Rate 250 g/ha, Postemergence, scale 0 to 10, 0 is no effect, 10 is complete control
[8] = Rate 500 g/ha, Postemergence, scale 0 to 10
[9] = Postemergence (flood test species), Rate 125 g/ha, scale of 0 to 10 where 0 is no effect and 10 is complete control
[10] = Rate 62 g/ha, Postemergence section, flood test species, scale of 0 to 10 where 0 is no effect and 10 is complete control
[11] = Rate 250 g/ha, Postemergence (flood test), scale 0 to 10, 0 is no effect, 10 is complete control
[12] = Rate 500 g/ha, listed under Postemergence (flood test species), scale 0 to 10

SMILES: Cc1nsc(C)c1-n1c(=O)on(C(=O)N(c2ccc(F)cc2F)C(C)C)c1=O [Compound 158]
- Corn plant response rating (corn; [1]): 0
- Corn plant response rating (corn; [2]): 0
- Corn plant response rating (0 to 10 scale) (corn; [3]): 0
- Corn plant response rating (corn; [4]): 2
- Corn plant response rating (corn; [5]): 2
- Corn plant response rating (corn; [6]): 0
- Plant response rating, Corn (corn; [7]): 0
- Corn plant response rating (corn; [8]): 0
- Cocklebur plant response rating (cocklebur; [1]): 0
- Cocklebur plant response rating (cocklebur; [2]): 0
- Cocklebur plant response rating (0 to 10 scale) (cocklebur; [3]): 0
- Cocklebur plant response rating (cocklebur; [4]): 0
- Cocklebur plant response rating (cocklebur; [5]): 0
- Cocklebur plant response rating (cocklebur; [6]): 0
- Plant response rating, Cocklebur (cocklebur; [7]): 0
- Cocklebur plant response rating (cocklebur; [8]): 0
- Ducksalad plant response rating (duck salad; [9]): 0
- Ducksalad plant response rating (duck salad; [10]): 0
- Plant response rating, Ducksalad (duck salad; [11]): 0
- Ducksalad plant response rating (duck salad; [12]): 0
- Soybean plant response rating (soybean; [1]): 3
- Soybean plant response rating (soybean; [2]): 0
- Soybean plant response rating (0 to 10 scale) (soybean; [3]): 0
- Soybean plant response rating (soybean; [4]): 0
- Soybean plant response rating (soybean; [5]): 0
- Soybean plant response rating (soybean; [6]): 3
- Plant response rating, Soybean (soybean; [7]): 4
- Soybean plant response rating (soybean; [8]): 5
- Barnyardgrass plant response rating (bamyardgrass; [9]): 0
- Barnyardgrass plant response rating (bamyardgrass; [10]): 0
- Plant response rating, Barnyardgrass (bamyardgrass; [11]): 0
- Barnyardgrass plant response rating (bamyardgrass; [12]): 0
- Sugarbeets plant response rating (sugar beet; [1]): 0
- Sugarbeets plant response rating (sugar beet; [2]): 0
- Sugarbeets plant response rating (0 to 10 scale) (sugar beet; [3]): 0
- Sugarbeets plant response rating (sugar beet; [4]): 0
- Sugarbeets plant response rating (sugar beet; [5]): 0
- Sugarbeets plant response rating (sugar beet; [6]): 0
- Plant response rating, Sugarbeets (sugar beet; [7]): 0
- Sugarbeets plant response rating (sugar beet; [8]): 0
- Rice plant response rating (rice; [9]): 0
- Rice plant response rating (rice; [10]): 0
- Plant response rating, Rice (rice; [11]): 0
- Rice plant response rating (rice; [12]): 0
- S. Flatsedge plant response rating (smallflower flatsedge; [9]): 0
- S. Flatsedge plant response rating (smallflower flatsedge; [10]): 0
- Plant response rating, S. Flatsedge (smallflower flatsedge; [11]): 0
- S. Flatsedge plant response rating (smallflower flatsedge; [12]): 0
- Crabgrass plant response rating (crabgrass; [1]): 0
- Crabgrass plant response rating (crabgrass; [2]): 3
- Crabgrass plant response rating (0 to 10 scale) (crabgrass; [3]): 3
- Crabgrass plant response rating (crabgrass; [4]): 4
- Crabgrass plant response rating (crabgrass; [5]): 7
- Crabgrass plant response rating (crabgrass; [6]): 0
- Plant response rating, Crabgrass (crabgrass; [7]): 3
- Crabgrass plant response rating (crabgrass; [8]): 4
- Bedstraw plant response rating (bedstraw; [1]): 0
- Bedstraw plant response rating (bedstraw; [2]): 0
- Bedstraw plant response rating (0 to 10 scale) (bedstraw; [3]): 0
- Bedstraw plant response rating (bedstraw; [4]): 0
- Bedstraw plant response rating (bedstraw; [5]): 0
- Bedstraw plant response rating (bedstraw; [6]): 0
- Plant response rating, Bedstraw (bedstraw; [7]): 0
- B. signalgrass plant response rating (surinam grass; [1]): 0
- B. signalgrass plant response rating (surinam grass; [2]): 0
- B. signalgrass plant response rating (0 to 10 scale) (surinam grass; [3]): 0
- B. signalgrass plant response rating (surinam grass; [4]): 0
- B. signalgrass plant response rating (surinam grass; [5]): 0
- B. signalgrass plant response rating (surinam grass; [6]): 0
- Plant response rating, B. signalgrass (surinam grass; [7]): 0
- B. signalgrass plant response rating (surinam grass; Rate 500 g/ha, Postemergence, scale 0 to 10, 0 no effect, 10 complete control): 0
- Wild oats plant response rating (wild oat; [2]): 0
- Wild oats plant response rating (0 to 10 scale) (wild oat; [3]): 0
- Wild oats plant response rating (wild oat; [4]): 0
- Wild oats plant response rating (wild oat; [5]): 2
- Plant response rating, Wild oats (wild oat; [7]): 0
- Wild oats plant response rating (wild oat; [8]): 0
- Velvetleaf plant response rating (velvetleaf; [2]): 0
- Velvetleaf plant response rating (0 to 10 scale) (velvetleaf; [3]): 0
- Velvetleaf plant response rating (velvetleaf; [4]): 0
- Velvetleaf plant response rating (velvetleaf; [5]): 0
- Plant response rating, Velvetleaf (velvetleaf; [7]): 0
- Velvetleaf plant response rating (velvetleaf; [8]): 0
- Blackgrass plant response rating (blackgrass; [1]): 1
- Blackgrass plant response rating (blackgrass; [2]): 0
- Blackgrass plant response rating (0 to 10 scale) (blackgrass; [3]): 0
- Blackgrass plant response rating (blackgrass; [5]): 3
- Blackgrass plant response rating (blackgrass; [6]): 1
- Plant response rating, Blackgrass (blackgrass; [7]): 2
- Blackgrass plant response rating (blackgrass; [8]): 5
- Wheat plant response rating (wheat; [2]): 0
- Wheat plant response rating (0 to 10 scale) (wheat; [3]): 0
- Wheat plant response rating (wheat; [4]): 0
- Wheat plant response rating (wheat; [5]): 0
- Plant response rating, Wheat (wheat; [7]): 0
- Wheat plant response rating (wheat; [8]): 0
- Nutsedge plant response rating (purple nutsedge; [1]): 0
- Nutsedge plant response rating (purple nutsedge; [2]): 0
- Nutsedge plant response rating (0 to 10 scale) (purple nutsedge; [3]): 0
- Nutsedge plant response rating (purple nutsedge; [4]): 0
- Nutsedge plant response rating (purple nutsedge; [5]): 0
- Nutsedge plant response rating (purple nutsedge; [6]): 0
- Plant response rating, Nutsedge (purple nutsedge; [7]): 0
- Nutsedge plant response rating (purple nutsedge; [8]): 0
